Experimental data published in patent publication US7718688B2, “Nitrobenzindoles and their use in cancer therapy” (Auckland Uniservices Limited, priority 2004, dated 2010).
Where a name gives a salt, the structure may show the parent alone.

Key:
[1] = system: SKOV3: human ovarian carcinoma cell line; assay: Proliferation IC50 assay, oxic/hypoxic, SKOV3; assay type: cell-based; details: Table 3; for IC50: 4 h exposure under aerobic conditions; for HCR (hypoxic cytotoxicity ratio) SKOV3: IC50(aerobic)/IC10(hypoxic)
[2] = system: HT29: human colon cancer cell line; assay: Proliferation IC50 assay, oxic/hypoxic, HT29; assay type: cell-based; details: Table 3; for IC50: 4 h exposure under aerobic conditions; for HCR (hypoxic cytotoxicity ratio) HT29: IC50(aerobic)/IC10(hypoxic)

Row | SMILES | melting point | IC50 ([1]; Homo sapiens, SK-OV-3) [µM] | HCR (hypoxic cytotoxicity ratio) SKOV3 [1] | IC50 ([2]; Homo sapiens, HT-29) [µM] | HCR (hypoxic cytotoxicity ratio) HT29 [2] | IC50 [1] [µM] | IC50 [2] [µM]
1 | CN(C)CCOc1ccc2[nH]c(C(=O)N3CC(CCl)c4c3cc([N+](=O)[O-])c3cc(S(N)(=O)=O)ccc43)cc2c1 (stereo not shown) (as salt: HCl) [Compound 26, 1-(Chloromethyl)-3-{5-[2-(dimethylamino)ethoxy]indol-2-carbonyl}-5-nitro-1,2-dihydro-3H-benzo[e]indole-7-sulfonamide] | > 350 °C |  |  |  |  |  | 
2 | NS(=O)(=O)c1ccc2c3c(cc([N+](=O)[O-])c2c1)N(C(=O)c1cc2cc(OCCO)ccc2[nH]1)CC3CCl (stereo not shown) | 231 to 234 °C |  |  |  |  |  | 
3 | CN(C)CCOc1ccc2[nH]c(C(=O)N3CC(CCl)c4c3cc([N+](=O)[O-])c3ccc(C(N)=O)cc43)cc2c1 (stereo not shown) (as salt: TFA) [Compound 43, 1-(Chloromethyl)-3-{5-[2-(dimethylamino)ethoxy]indol-2-carbonyl}-5-nitro-1,2-dihydro-3H-benzo[e]indole-8-carboxamide] | > 320 °C |  |  |  |  |  | 
4 | CN(C)CCOc1ccc2[nH]c(C(=O)N3CC(CCl)c4c3cc([N+](=O)[O-])c3cc(S(C)(=O)=O)ccc43)cc2c1 (stereo not shown) (as salt: HCl) [Compound 24, 1-(Chloromethyl)-3-{5-[2-(dimethylamino)ethoxy]indol-2-carbonyl}-7-(methylsulfonyl)-5-nitro-1,2-dihydro-3H-benzo[e]indole] | 250 to 252 °C |  |  |  |  |  | 
5 | CN(C)CCOc1ccc2[nH]c(C(=O)N3CC(CCl)c4c3cc([N+](=O)[O-])c3cc(S(=O)(=O)N(C)C)ccc43)cc2c1 (stereo not shown) [Compound 38, 1-(Chloromethyl)-3-{5-[2-(dimethylamino)ethoxy]indol-2-carbonyl}-N,N-dimethyl-5-nitro-1,2-dihydro-3H-benzo[e]indole-7-sulfonamide] |  | 0.5 | 2.4 | 1.1 | 3.6 |  | 
6 | CN(C)CCOc1ccc2[nH]c(C(=O)N3CC(CCl)c4c3cc([N+](=O)[O-])c3cccc([N+](=O)[O-])c43)cc2c1 (stereo not shown) (as salt: HCl) [Compound 52, 1-(Chloromethyl)-3-{5-[2-(dimethylamino)ethoxy]indol-2-carbonyl}-5,9-dinitro-1,2-dihydro-3H-benzo[e]indole] | 187 to 191 °C |  |  |  |  |  | 
7 | COc1cc2cc(C(=O)N3CC(CCl)c4c3cc([N+](=O)[O-])c3cc(C#N)ccc43)[nH]c2c(OC)c1OC (stereo not shown) [Compound 21] |  |  | 13 |  | 2.5 | 6.4 | 5.3
8 | CNS(=O)(=O)c1ccc2c3c(cc([N+](=O)[O-])c2c1)N(C(=O)c1cc2cc(OCCN(C)C)ccc2[nH]1)CC3CCl (stereo not shown) [Compound 32, 1-(Chloromethyl)-3-{5-[2-(dimethylamino)ethoxy]indol-2-carbonyl}-N-methyl-5-nitro-1,2-dihydro-3H-benzo[e]indole-7-sulfonamide] |  | 2.6 | 21 | 2.7 | 24 |  | 
9 | CNS(=O)(=O)c1ccc2c3c(cc([N+](=O)[O-])c2c1)N(C(=O)c1cc2cc(OCCN(C)C)ccc2[nH]1)CC3CCl (stereo not shown) (as salt: HCl) [Compound 32, 1-(Chloromethyl)-3-{5-[2-(dimethylamino)ethoxy]indol-2-carbonyl}-N-methyl-5-nitro-1,2-dihydro-3H-benzo[e]indole-7-sulfonamide] | > 350 °C |  |  |  |  |  | 
10 | CN(C)CCOc1ccc2[nH]c(C(=O)N3CC(CCl)c4c3cc([N+](=O)[O-])c3cc(C(=O)NCCO)ccc43)cc2c1 (stereo not shown) [Compound 19, 1-(Chloromethyl)-3-(5-[2-(dimethylamino)ethoxy]indol-2-carbonyl)-N-(2-hydroxyethyl)-5-nitro-1,2-dihydro-3H-benzo[e]indole-7-carboxamide] |  | 8.9 | 160 | 12 | 490 |  | 
11 | CN(C)CCOc1ccc2[nH]c(C(=O)N3CC(CCl)c4c3cc([N+](=O)[O-])c3cc(C#N)ccc43)cc2c1 (stereo not shown) (as salt: HCl) [Compound 22, 1-(Chloromethyl)-3-{5-[2-(dimethylamino)ethoxy]indol-2-carbonyl}-5-nitro-1,2-dihydro-3H-benzo[e]indole-7-carbonitrile] | > 300 °C |  |  |  |  |  | 
12 | CN(C)CCOc1ccc2[nH]c(C(=O)N3CC(CCl)c4c3cc([N+](=O)[O-])c3c([N+](=O)[O-])cccc43)cc2c1 (stereo not shown) (as salt: HCl) [Compound 2, 1-(Chloromethyl)-3-(5-[2-(dimethylamino)ethoxy]indol-2-carbonyl)-5,6-dinitro-1,2-dihydro-3H-benzo[e]indole] | 225 to 226 °C |  |  |  |  |  | 
13 | CN(C)CCOc1ccc2[nH]c(C(=O)N3CC(CCl)c4c3cc([N+](=O)[O-])c3cc(S(=O)(=O)NN)ccc43)cc2c1.Cl.Cl (stereo not shown) [Compound 31, 1-(Chloromethyl)-3-{5-[2-(dimethylamino)ethoxy]indol-2-carbonyl}-5-nitro-1,2-dihydro-3H-benzo[e]indole-7-sulfonohydrazide dihydrochloride] |  | 33 | 160 | 31 | 220 |  | 
14 | COc1cc2cc(C(=O)N3CC(CCl)c4c3cc([N+](=O)[O-])c3ccc(C(=O)NCCN(C)C)cc43)[nH]c2c(OC)c1OC (stereo not shown) (as salt: HCl) [Compound 44, 1-(Chloromethyl)-N-[2-(dimethylamino)ethyl]-5-nitro-3-(5,6,7-trimethoxyindol-2-carbonyl)-1,2-dihydro-3H-benzo[e]indole-8-carboxamide] | 228 to 229 °C (dec.) |  |  |  |  |  | 
15 | COc1cc2cc(C(=O)N3CC(CCl)c4c3cc([N+](=O)[O-])c3cccc([N+](=O)[O-])c43)[nH]c2c(OC)c1OC (stereo not shown) [Compound 51, 1-(Chloromethyl)-5,9-dinitro-(5,6,7-trimethoxyindol-2-carbonyl)-1,2-dihydro-3H-benzo[e]indole] |  |  |  |  | 1.2 | 55 | 34
16 | COc1cc2cc(C(=O)N3CC(CCl)c4c3cc([N+](=O)[O-])c3cc(S(=O)(=O)NCCOP(=O)(O)O)ccc43)[nH]c2c(OC)c1OC (stereo not shown) | 228 to 232 °C |  |  |  |  |  | 
17 | COc1cc2cc(C(=O)N3CC(CCl)c4c3cc([N+](=O)[O-])c3ccccc43)[nH]c2c(OC)c1OC (stereo not shown) [Compound R1, reference compound] |  | 4.2 | 2.8 | 3.4 | 2.5 |  | 
18 | CC(=O)c1cccc2c3c(cc([N+](=O)[O-])c12)N(C(=O)c1cc2cc(OCCN(C)C)ccc2[nH]1)CC3CCl (stereo not shown) [Compound 4] |  |  | 12 |  | 5.2 | 0.64 | 0.2
19 | COc1cc2cc(C(=O)N3CC(CCl)c4c3cc([N+](=O)[O-])c3cc(S(N)(=O)=O)ccc43)[nH]c2c(OC)c1OC (stereo not shown) [Compound 25, 1-(Chloromethyl)-5-nitro-3-(5,6,7-trimethoxyindol-2-carbonyl)-1,2-dihydro-3H-benzo[e]indole-7-sulfonamide] |  | 37 | 10 | 43 | 3.6 |  | 
20 | CN(C)CCOc1ccc2[nH]c(C(=O)N3CC(CCl)c4c3cc([N+](=O)[O-])c3ccc(S(C)(=O)=O)cc43)cc2c1 (stereo not shown) (as salt: HCl) [Compound 47, 1-(Chloromethyl)-3-{5-[2-(dimethylamino)ethoxy]indol-2-carbonyl}-8-(methylsulfonyl)-5-nitro-1,2-dihydro-3H-benzo[e]indole] | > 300 °C |  |  |  |  |  | 
21 | CN(C)CCOc1ccc2[nH]c(C(=O)N3CC(CCl)c4c3cc([N+](=O)[O-])c3cc([N+](=O)[O-])ccc43)cc2c1 (stereo not shown) [Compound 9, 1-(Chloromethyl)-3-{5-[2-(dimethylamino)ethoxy]indol-2-carbonyl}-5,7-dinitro-1,2-dihydro-3H-benzo[e]indole] |  | 1.1 | 9.3 | 0.89 | 9.6 |  | 
22 | NS(=O)(=O)c1ccc2c3c(cc([N+](=O)[O-])c2c1)N(C(=O)c1cc2cc(OCCOP(=O)(O)O)ccc2[nH]1)CC3CCl (stereo not shown) | 207 to 211 °C |  |  |  |  |  | 
23 | CN(C)CCOc1ccc2[nH]c(C(=O)N3CC(CCl)c4c3cc([N+](=O)[O-])c3cc(C(=O)NCCO)ccc43)cc2c1 (stereo not shown) (as salt: HCl) [Compound 19, 1-(Chloromethyl)-3-(5-[2-(dimethylamino)ethoxy]indol-2-carbonyl)-N-(2-hydroxyethyl)-5-nitro-1,2-dihydro-3H-benzo[e]indole-7-carboxamide] | 231 to 233 °C (dec.) |  |  |  |  |  | 
24 | COC(=O)c1ccc2c([N+](=O)[O-])cc3c(c2c1)C(CCl)CN3C(=O)c1cc2cc(OCCN(C)C)ccc2[nH]1 (stereo not shown) [Compound 42, Methyl 1-(chloromethyl)-3-{5-[2-(dimethylamino)ethoxy]indol-2-carbonyl}-5-nitro-1,2-dihydro-3H-benzo[e]indole-8-carboxylate] |  | 0.52 | 2.4 | 0.55 | 1.6 |  | 
25 | CN(C)CCOc1ccc2[nH]c(C(=O)N3CC(CCl)c4c3cc([N+](=O)[O-])c3cc(S(=O)(=O)NO)ccc43)cc2c1.Cl (stereo not shown) [Compound 30, 1-(Chloromethyl)-3-{5-[2-(dimethylamino)ethoxy]indol-2-carbonyl}-N-hydroxy-5-nitro-4,2-dihydro-3H-benzo[e]indole-7-sulfonamide hydrochloride] |  |  | 55 |  | 160 | 24 | 24
26 | COc1cc2cc(C(=O)N3CC(CCl)c4c3cc([N+](=O)[O-])c3ccc(C(=O)NCCN(C)C)cc43)[nH]c2c(OC)c1OC (stereo not shown) [Compound 44, 1-(Chloromethyl)-N-[2-(dimethylamino)ethyl]-5-nitro-3-(5,6,7-trimethoxyindol-2-carbonyl)-1,2-dihydro-3H-benzo[e]indole-8-carboxamide] |  | 2.5 | 16 | 1.3 | 2.4 |  | 
